Here are results for 3 compounds from patent US10077288B2, “Hydroxystatin derivatives for the treatment of arthrosis” (Merck Patent GmbH, priority 2012, dated 2018).

Experiment [1] relates to bovine explants (cartilage degradation, liberation of GAG). Briefly: Cartilage explant assay: pH-induced cartilage degradation, GAG release. Format: cell-based. To be noted: Bos taurus, 72 h, pH 5.5, 3 days. From the text: EXAMPLE 5: CARTILAGE EXPLANT ASSAY
In order to investigate the effect of potential cathepsin D inhibitors on cartilage degradation, a pH-induced model based on bovine explants is used. The pH of the medium in which the explants are cultivated is matched here to the pathophysiological pH of an arthrotic knee. This pH is pH 5.5. In this ex vivo model, potential cathepsin D inhibitors are subsequently investigated for their action with respect to stopping of the cartilage degradation process. If the cartilage is destroyed, glycosaminoglycans (GAGs) are released into the cell culture supernatant. The amount of GAGs liberated can be determined quantitatively with the aid of DMMB (dimethylmethylene blue hydrochloride). If sulfated GAGs are detected using dimethylmethylene blue hydrochloride, the decrease in the absorption at 633 nm is utilised. […] In order to determine the concentration, a calibration line is also recorded using chondroitin sulfate.
1.) Procedure: pH-Induced Cartilage Degradation of Bovine Explants
The bovine explants are firstly prepared. The induction of the cartilage degradation is carried out in 96-multiwell plates. One explant is cultivated per well. In each case, 200 μl of DMEM (incubation medium pH 5.5) without FBS+30 μg/ml of ascorbic acid are added. Thus negative control, explants (n=4) are incubated at pH 7.4 (without FBS). This control is not included in the calculation of the data, but instead ensures that the pH change has the desired effect on the liberation of GAG. At this point, the substances to be tested are added. No pre-incubation of the explants is carried out. The explants are cultivated with the corresponding substances for 3 days in the incubator at 37° C. and 7.5% CO2.
In order to investigate the effect of cathepsin D inhibitors on the liberation of GAG (glycosaminoglycan), the substances are employed in the desired concentration and cultivated for 3 days. The compounds to be tested are tested in a first experiment in a concentration of 1 μM and 1% of DMSO. Substances which have an effect of >50% on the liberation of GAG (this corresponds to <50% of the control in the Assay Explorer) are tested in the next experiment at 100 nM and 1% of DMSO. Substances which have an effect of >50% on the liberation of GAG under these conditions (this corresponds to <50% of the control in the Assay Explorer) are tested in a concentration/effect relationship. The compounds here are investigated in the following concentrations: 30 μM, 10 μM, 3 μM, 1 μM, 0.3 μM, 0.1 μM, 0.03 μM, 0.01 μM.
The positive control used is pepstatin A with a concentration of 0.01 μM. The assay window is defined by the control (pH 5.5), defined as 0% effect, and the control pH 5.5+0.01 μM pepstatin A, defined as 100% effect. After incubation for 3 days, the cell culture supernatants are collected and stored at −20° C. or measured directly. The amount of liberated GAG is measured photometrically.
The effect (1 value) of the respective substance in % based on the positive control (pH 5.5+0.01 μM pepstatin A) and the negative control (pH 5.5) is reported for concentrations of 1 μM and 100 nM. The value represents the average of 4 replicants. In the determination of a concentration/effect relationship, an IC50 value is reported to the database (Assay Explorer).
The cell culture supernatants (200 μl) are either measured directly or stored at −20° C. […] A rapid colour reaction occurs, which is subsequently measured at 633 nm using a plate reader (for example Envision). […]

In the next experiment the target is T1, recombinant human renin (Homo sapiens, UniProt P00797).
T1 construct: purchased Proteos, Kalamazoo, Mich
T1 sequence (P00797 67-406): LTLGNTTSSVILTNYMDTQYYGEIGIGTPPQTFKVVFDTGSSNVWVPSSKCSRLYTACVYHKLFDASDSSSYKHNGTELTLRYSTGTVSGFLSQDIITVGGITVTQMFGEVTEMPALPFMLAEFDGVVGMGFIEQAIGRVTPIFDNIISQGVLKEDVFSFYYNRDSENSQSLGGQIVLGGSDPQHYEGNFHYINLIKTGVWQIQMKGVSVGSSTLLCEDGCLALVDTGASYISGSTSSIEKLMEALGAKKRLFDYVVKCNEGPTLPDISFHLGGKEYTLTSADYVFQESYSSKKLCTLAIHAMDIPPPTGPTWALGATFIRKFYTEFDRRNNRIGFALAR
Briefly: In-vitro fluorescence assay for identification of renin-inhibitory activity. Type of experiment: biochemical. To be noted: recombinant human renin 10 nM, FRET substrate 5 μM, pH 7.2; read-out: Renin selectivity IC50. How it is done: EXAMPLE 8: IN-VITRO FLUORESCENCE ASSAY FOR IDENTIFICATION OF RENIN-INHIBITORY ACTIVITY
In order to identify modulators of renin activity, a continuous enzymatic test was carried out with a synthetic peptide which carries a fluorescent group Edans (=(5-(aminoethyl)aminonaphthalenesulfonate) which is quenched by energy transfer from a Dabcyl (4′-dimethylaminoazobenzene-4-carboxylate) group on the same molecule, in Greiner 384-well microtitre plates. Cleavage of the peptidic substrate by renin causes an increase in the fluorescence intensity. In order to determine the efficacy of substances, the time-dependent increase in the fluorescence intensity in the presence of the substance was compared with the time-dependent increase in fluorescence in the absence of substances. The reference substance used was renin inhibitor 2 (Z-Arg-Arg-Pro-Phe-His-Sta-Ile-His N-Boc-Lys methyl ester Z) (Sigma-Aldrich). The substrate used was renin FRET substrate I (DABCYL-g-Abu-Ile-His-Pro-Phe-His-Leu-Val-Ile-His-Thr-EDANS) (Anaspec, Fremont Calif.). The enzyme employed was recombinant human renin (Pro-teos, Kalamazoo, Mich.) in a final concentration of 10 nM. The test was carried out in 50 mM Mops buffer, 1.5% (v/v) of DMSO, 0.1% (w/v) of Igepal®, pH 7.2, 0.5% (w/v) of BSA. 2 μl of each substance solution with serially diluted substance concentration were added to in each case 4 μl of renin solution and incubated at room temperature for 15 min. The reaction was started by addition of 4 μl of substrate solution (final concentration 5 μM). After carrying out a starting-point fluorescence measurement (excitation wavelength 340 nm/emission wavelength 495 nm) using an Envision multilabel reader (Perkin Elmer), the reaction was incubated at 37° C. for 60 min. The amount of peptide fragment cleaved off during the reaction time was subsequently measured by determination of the increase in the fluorescence intensity at 495 nm (excitation wavelength 340 nm).
Result: all compounds measured have an IC50 of the renin selectivity of >30 μM (see Table 2 in Example 1).

pIC50: −log10 of the molar value.

What is called pIC50 is the negative decadic logarithm of the IC50, by convention in mol/L.

Consider `CC[C@H](C)[C@H](NC(=O)C[C@H](O)[C@H](Cc1ccccc1)NC(=O)[C@@H](NC(=O)CCc1ccccc1)C(C)C)C(=O)N[C@H](C(=O)O)C(C)C` [Compound 4, (S)-2-((2S,3S)-2-{(3S,4S)-3-hydroxy-4-[(S)-3-methyl-2-(3-phenyl-propionylamino)butyrylamino]-5-phenylpentanoylamino}-3-methylpentanoylamino)-3-methylbutyric acid], for which the negative logarithm of the IC50 (pIC50) in experiment [1] is 7.22.

As for `CC[C@H](C)[C@H](NC(=O)C[C@H](O)[C@H](Cc1ccccc1)NC(=O)[C@@H](NC(=O)CCCc1ccccc1)C(C)C)C(=O)N[C@H](C(=O)O)C(C)C` [Compound 5, (S)-2-((2S,3S)-2-{(3S,4S)-3-hydroxy-4-[(S)-3-methyl-2-(4-phenyl-butyrylamino)butyrylamino]-5-phenylpentanoylamino}-3-methylpentanoylamino)-3-methylbutyric acid], the pIC50 is 4.70 at recombinant human renin and 6.00 in experiment [1]. As for `CC[C@H](C)[C@H](NC(=O)C[C@H](O)[C@H](Cc1ccccc1)NC(=O)[C@@H](NC(=O)Cc1cccc(OC)c1)C(C)C)C(=O)N[C@H](C(=O)O)C(C)C` [Compound 20, (S)-2-[(2S,3S)-2-((3S,4S)-3-hydroxy-4-{(S)-2-[2-(3-methoxyphenyl)-acetylamino]-3-methylbutyrylamino}-5-phenylpentanoylamino)-3-methylpentanoylamino]-3-methylbutyric acid], in experiment [1], the pIC50 is 7.32.
